We go through two compounds from publication PMC5369539 (Chemical Science, 2016).

Bridge positions count the residues as written; N and C are the ends. Square brackets hold non-standard residues; d marks the D form. Peptide text beside a SMILES is read from it. * marks the point of attachment. X1 = CC[C@H](C)CCCCC(=O)*; Dab = NCC[C@H](N)C(=O)O

One test has as its system E. faecalis (OG1X). The test can be described thus: Minimum inhibitory concentration. It counts as cell-based. The conditions noted are these: text summary of Table S1.
A further test deals with S. aureus (ATCC6538). Description: Minimum inhibitory concentration. It counts as cell-based. The conditions noted are these: text summary of Table S1.

With `CCCCCCCCCC(=O)N[C@@H](Cc1c[nH]c2ccccc12)C(=O)N[C@H](CC(N)=O)C(=O)N[C@@H](CC(=O)O)C(=O)N[C@@H]1C(=O)NCC(=O)N[C@@H](CCCN)C(=O)N[C@@H](CC(=O)O)C(=O)N[C@H](C)C(=O)N[C@@H](CC(=O)O)C(=O)NCC(=O)N[C@H](CO)C(=O)N[C@@H]([C@H](C)CC(=O)O)C(=O)N[C@@H](CC(=O)c2ccccc2N)C(=O)O[C@@H]1C` [daptomycin], the “activity against E. faecalis (in words)” value with E. faecalis (OG1X) is given as “tolerant”. Also, the “activity against S. aureus (in words)” value with S. aureus (ATCC6538) was “appreciable activity”. For `CC[C@H](C)CCCCC(=O)N[C@@H](CCN)C(=O)N[C@H](C(=O)N[C@@H](CCN)C(=O)N[C@H]1CCNC(=O)[C@H]([C@@H](C)O)NC(=O)[C@H](CCN)NC(=O)[C@H](CCN)NC(=O)[C@H](CC(C)C)NC(=O)[C@@H](Cc2ccccc2)NC(=O)[C@H](CCN)NC1=O)[C@@H](C)O` [polymyxin B] (X1-[Dab]T[Dab][Dab][Dab][dF]L[Dab][Dab]T; lactam 4-C (inferred); N-terminus assumed), the “activity against E. faecalis (in words)” value with E. faecalis (OG1X) was “tolerant”.
